Data published in patent US12428408B2, “Fused heterocyclic mescaline derivatives” (Enveric Biosciences Canada Inc., priority 2022, dated 2025).
Like-named read-outs stand apart in the source and are kept apart here.

Key:
5-HT1A receptor [1] = target: T1, 5-HT1A receptor (Homo sapiens, UniProt P08908); experiment: 5-HT1A receptor radioligand competition assay (SPA); type: binding; conditions: competition with 0.5 nM 8-hydroxy-DPAT [3H]; test compound 3 nM to 1 mM; read-out: 5-HT1A, Ki
T1 construct: purchased Perkin Elmer 6110501400UA
T1 sequence (P08908 1-422): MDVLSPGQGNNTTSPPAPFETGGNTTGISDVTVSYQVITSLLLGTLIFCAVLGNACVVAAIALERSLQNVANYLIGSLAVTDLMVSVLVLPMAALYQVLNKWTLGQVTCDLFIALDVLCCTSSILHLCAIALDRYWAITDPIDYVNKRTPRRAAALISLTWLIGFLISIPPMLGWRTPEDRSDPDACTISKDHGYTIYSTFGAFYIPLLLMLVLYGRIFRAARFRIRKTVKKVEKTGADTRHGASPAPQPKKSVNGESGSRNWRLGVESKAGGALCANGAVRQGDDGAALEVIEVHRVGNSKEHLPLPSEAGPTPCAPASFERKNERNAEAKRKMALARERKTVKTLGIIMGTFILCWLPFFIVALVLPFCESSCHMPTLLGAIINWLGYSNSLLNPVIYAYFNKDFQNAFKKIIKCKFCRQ

5-HT1A receptor [2] = target: T1, 5-HT1A receptor; experiment: Functional 5-HT1A receptor cAMP assay in CHO-K1/5-HT1A/Gα15 cells; type: cell-based; conditions: for 5-HT1A receptor engagement (change in cAMP levels), in words: +5-HT1A cells, 4 μM forskolin, FIGS. 37B-37H
[3] = target: T2, human serotonin transporter (SERT) (Homo sapiens, UniProt P31645); experiment: biochemical; type: binding
T2 construct: purchased PerkinElmer RBHSTM400UA

5-HT1B (h) = target: T3, 5-HT1B (h) (Homo sapiens, UniProt P28222); experiment: Competition assay to measure binding affinity at 5-HT1B receptor; conditions: test ligand 10 μM; [3H]GR125743 1 nM
T3 construct: host or cells: Chem-1 (RBL) cells

5-HT1D (r) = target: T4, 5-HT1D (r) (Rattus norvegicus, UniProt P28565); experiment: Competition assay to measure binding affinity at 5-HT1D receptor; conditions: test ligand 10 μM; [3H]serotonin 1 nM
T4 construct: host or cells: CHO cells

5-HT2B (h) = target: T5, 5-HT2B (h) (Homo sapiens, UniProt P41595); experiment: Competition assay to measure binding affinity at 5-HT2B receptor; conditions: test ligand 10 μM; [3H]mesulergine 2 nM
T5 construct: host or cells: CHO cells

5-HT2C (h) = target: T6, 5-HT2C (h) (Homo sapiens, UniProt P28335); experiment: Competition assay to measure binding affinity at 5-HT2C receptor; conditions: test ligand 10 μM; [125I](±)DOI 0.1 nM
T6 construct: host or cells: HEK-293 cells
T6 sequence (P28335 33-458): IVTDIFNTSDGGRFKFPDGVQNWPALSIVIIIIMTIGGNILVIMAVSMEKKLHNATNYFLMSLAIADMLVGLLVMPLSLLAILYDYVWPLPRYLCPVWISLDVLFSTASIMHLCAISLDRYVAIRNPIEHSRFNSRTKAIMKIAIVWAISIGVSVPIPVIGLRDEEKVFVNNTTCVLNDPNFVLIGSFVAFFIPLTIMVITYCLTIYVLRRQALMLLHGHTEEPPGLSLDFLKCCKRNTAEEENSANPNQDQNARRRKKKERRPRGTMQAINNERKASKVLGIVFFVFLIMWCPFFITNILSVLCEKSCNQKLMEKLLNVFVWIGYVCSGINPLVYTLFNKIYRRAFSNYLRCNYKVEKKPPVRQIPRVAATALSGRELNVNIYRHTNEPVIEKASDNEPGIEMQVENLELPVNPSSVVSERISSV

5-HT7 (h) = target: T7, 5-HT7 (h) (Homo sapiens, UniProt P34969); experiment: Competition assay to measure binding affinity at 5-HT7 receptor; conditions: test ligand 10 μM; [3H]LSD 4 nM
T7 construct: host or cells: HEK-293 cells

alpha2A (h) = target: T8, alpha2A (h) (Homo sapiens, UniProt P08913); experiment: Competition assay to measure binding affinity at alpha2A receptor; conditions: test ligand 10 μM, [3H]RX 821002 1 nM; for inhibition at 10 µM: read-out: α-2A, percent of control-specific binding
T8 construct: host or cells: CHO cells
T8 sequence (P08913 1-465): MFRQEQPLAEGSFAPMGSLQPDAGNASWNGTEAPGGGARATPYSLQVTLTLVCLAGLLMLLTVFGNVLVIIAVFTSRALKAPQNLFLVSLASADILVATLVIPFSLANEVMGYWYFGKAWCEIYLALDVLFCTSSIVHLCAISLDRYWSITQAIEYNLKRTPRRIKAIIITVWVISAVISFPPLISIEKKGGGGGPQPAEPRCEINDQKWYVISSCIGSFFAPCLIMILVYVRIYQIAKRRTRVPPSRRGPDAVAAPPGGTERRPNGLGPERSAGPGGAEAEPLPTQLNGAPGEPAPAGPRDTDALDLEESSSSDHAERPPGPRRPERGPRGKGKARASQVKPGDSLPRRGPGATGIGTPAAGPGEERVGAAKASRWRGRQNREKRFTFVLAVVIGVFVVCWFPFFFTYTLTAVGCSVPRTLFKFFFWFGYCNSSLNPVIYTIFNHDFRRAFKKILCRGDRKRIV

D2 (h) = target: T9, D2 (h) (Homo sapiens, UniProt P14416); experiment: Competition assay to measure binding affinity at D2L receptor; conditions: test ligand 10 μM; [3H]methylspiperone 0.3 nM
T9 construct: host or cells: HEK-293 cells

D3 (h) = target: T10, D3 (h) (Homo sapiens, UniProt P35462); experiment: Competition assay to measure binding affinity at D3 receptor; conditions: test ligand 10 μM; [3H]methylspiperone […]
T10 construct: host or cells: CHO cells

DAT (h) = target: T11, DAT (h) (Homo sapiens, UniProt Q01959); experiment: Competition assay to measure binding affinity at dopamine transporter (DAT); conditions: test ligand 10 μM; [3H]BTCP 4 nM
T11 construct: host or cells: CHO cells

MT1 (ML1A) (h) = target: T12, MT1 (ML1A) (h) (Homo sapiens, UniProt P48039); experiment: Competition assay to measure binding affinity at MT1 receptor; conditions: test ligand 10 μM; [125I]2-iodomelatonin 0.01 nM
T12 construct: host or cells: CHO cells

NET (h) = target: T13, NET (h) (Homo sapiens, UniProt P23975); experiment: Competition assay to measure binding affinity at norepinephrine transporter (NET); conditions: test ligand 10 μM; [3H]nisoxetine 1 nM
T13 construct: host or cells: CHO cells

5-HT2A receptor = 5-HT2A receptor (Homo sapiens, UniProt P28223); experiment: 5-HT2A receptor radioligand competition assay (SPA)
Sequence of 5-HT2A receptor (P28223 whole entry): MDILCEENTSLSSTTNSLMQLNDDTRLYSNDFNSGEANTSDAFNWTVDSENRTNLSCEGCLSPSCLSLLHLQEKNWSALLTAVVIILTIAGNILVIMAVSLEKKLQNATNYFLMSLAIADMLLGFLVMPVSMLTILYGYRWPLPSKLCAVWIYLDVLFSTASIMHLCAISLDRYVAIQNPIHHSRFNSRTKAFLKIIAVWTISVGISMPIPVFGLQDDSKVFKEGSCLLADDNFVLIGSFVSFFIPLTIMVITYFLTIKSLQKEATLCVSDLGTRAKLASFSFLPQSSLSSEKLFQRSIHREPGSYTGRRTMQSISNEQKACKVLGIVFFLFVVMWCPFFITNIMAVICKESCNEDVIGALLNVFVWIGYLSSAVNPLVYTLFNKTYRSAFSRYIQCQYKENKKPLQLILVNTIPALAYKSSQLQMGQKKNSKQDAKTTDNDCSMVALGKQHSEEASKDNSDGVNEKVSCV

T5 sequence (P41595 whole entry): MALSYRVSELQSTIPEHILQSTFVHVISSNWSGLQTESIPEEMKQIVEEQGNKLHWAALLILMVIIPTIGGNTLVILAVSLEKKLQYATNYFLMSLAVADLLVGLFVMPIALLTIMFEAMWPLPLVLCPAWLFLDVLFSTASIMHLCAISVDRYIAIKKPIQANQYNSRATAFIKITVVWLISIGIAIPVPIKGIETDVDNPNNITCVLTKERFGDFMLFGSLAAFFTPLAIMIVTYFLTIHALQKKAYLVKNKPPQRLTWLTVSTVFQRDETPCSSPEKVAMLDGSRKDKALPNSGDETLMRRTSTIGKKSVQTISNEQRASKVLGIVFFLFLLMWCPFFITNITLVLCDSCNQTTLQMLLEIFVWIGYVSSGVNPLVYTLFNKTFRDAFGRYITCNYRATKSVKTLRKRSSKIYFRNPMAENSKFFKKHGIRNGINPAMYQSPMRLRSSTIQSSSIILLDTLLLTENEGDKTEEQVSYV
T4 sequence (P28565 whole entry): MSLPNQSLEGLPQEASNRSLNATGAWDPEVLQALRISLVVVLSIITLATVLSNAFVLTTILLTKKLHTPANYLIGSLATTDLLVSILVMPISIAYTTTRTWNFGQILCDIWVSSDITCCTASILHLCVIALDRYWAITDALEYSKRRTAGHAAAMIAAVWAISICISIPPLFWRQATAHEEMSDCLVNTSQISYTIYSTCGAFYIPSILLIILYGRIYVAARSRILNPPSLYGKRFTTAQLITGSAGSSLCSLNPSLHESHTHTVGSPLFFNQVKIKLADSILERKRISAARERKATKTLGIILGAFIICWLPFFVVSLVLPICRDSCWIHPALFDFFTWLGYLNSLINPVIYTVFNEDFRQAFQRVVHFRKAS
T7 sequence (P34969 whole entry): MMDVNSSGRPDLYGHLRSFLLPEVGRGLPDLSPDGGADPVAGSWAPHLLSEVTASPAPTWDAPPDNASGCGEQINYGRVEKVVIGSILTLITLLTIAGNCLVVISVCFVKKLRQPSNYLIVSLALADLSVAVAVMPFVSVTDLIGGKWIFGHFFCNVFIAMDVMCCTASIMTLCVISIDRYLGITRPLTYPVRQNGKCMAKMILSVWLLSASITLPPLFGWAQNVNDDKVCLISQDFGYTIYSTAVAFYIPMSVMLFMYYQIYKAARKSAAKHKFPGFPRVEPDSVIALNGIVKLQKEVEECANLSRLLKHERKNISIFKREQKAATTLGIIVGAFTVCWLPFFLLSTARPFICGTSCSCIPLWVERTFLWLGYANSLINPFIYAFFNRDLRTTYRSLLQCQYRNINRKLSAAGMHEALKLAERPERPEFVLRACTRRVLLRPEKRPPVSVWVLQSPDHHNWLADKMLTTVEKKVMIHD
T2 sequence (P31645 whole entry): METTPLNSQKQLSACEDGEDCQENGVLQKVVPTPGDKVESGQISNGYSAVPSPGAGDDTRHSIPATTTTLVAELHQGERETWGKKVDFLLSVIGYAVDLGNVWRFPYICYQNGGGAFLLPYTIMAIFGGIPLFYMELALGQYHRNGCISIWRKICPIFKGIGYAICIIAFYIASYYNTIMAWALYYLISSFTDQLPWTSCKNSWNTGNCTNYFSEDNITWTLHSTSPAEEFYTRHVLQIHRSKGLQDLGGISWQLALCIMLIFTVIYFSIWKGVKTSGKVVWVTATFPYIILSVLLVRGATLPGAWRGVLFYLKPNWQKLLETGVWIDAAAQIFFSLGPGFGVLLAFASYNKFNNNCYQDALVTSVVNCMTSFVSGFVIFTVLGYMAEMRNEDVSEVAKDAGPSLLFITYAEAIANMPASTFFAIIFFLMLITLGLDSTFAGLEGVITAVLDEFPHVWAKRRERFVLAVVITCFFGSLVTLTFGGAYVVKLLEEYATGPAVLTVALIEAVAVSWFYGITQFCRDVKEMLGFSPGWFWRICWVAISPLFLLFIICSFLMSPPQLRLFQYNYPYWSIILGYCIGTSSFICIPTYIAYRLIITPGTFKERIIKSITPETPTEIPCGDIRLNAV
T3 sequence (P28222 whole entry): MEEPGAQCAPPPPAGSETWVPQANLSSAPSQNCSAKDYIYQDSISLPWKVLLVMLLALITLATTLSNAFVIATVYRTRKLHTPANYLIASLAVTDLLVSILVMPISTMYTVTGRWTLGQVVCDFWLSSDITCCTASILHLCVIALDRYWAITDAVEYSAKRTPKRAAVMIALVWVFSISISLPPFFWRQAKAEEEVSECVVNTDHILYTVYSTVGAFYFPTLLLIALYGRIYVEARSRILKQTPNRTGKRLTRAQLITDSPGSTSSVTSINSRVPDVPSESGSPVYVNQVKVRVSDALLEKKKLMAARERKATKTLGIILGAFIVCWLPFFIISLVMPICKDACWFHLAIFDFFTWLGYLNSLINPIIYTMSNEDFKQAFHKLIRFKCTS
T12 sequence (P48039 whole entry): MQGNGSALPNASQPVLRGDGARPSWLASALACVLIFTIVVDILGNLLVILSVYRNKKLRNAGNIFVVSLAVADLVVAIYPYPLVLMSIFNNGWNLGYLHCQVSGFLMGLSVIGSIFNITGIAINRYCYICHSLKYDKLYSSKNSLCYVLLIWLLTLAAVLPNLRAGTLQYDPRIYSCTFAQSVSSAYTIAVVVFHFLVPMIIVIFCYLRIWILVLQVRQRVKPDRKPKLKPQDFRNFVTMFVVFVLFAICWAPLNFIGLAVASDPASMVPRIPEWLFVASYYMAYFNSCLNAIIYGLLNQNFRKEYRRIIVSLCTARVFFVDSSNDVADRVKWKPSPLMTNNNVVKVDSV
T11 sequence (Q01959 whole entry): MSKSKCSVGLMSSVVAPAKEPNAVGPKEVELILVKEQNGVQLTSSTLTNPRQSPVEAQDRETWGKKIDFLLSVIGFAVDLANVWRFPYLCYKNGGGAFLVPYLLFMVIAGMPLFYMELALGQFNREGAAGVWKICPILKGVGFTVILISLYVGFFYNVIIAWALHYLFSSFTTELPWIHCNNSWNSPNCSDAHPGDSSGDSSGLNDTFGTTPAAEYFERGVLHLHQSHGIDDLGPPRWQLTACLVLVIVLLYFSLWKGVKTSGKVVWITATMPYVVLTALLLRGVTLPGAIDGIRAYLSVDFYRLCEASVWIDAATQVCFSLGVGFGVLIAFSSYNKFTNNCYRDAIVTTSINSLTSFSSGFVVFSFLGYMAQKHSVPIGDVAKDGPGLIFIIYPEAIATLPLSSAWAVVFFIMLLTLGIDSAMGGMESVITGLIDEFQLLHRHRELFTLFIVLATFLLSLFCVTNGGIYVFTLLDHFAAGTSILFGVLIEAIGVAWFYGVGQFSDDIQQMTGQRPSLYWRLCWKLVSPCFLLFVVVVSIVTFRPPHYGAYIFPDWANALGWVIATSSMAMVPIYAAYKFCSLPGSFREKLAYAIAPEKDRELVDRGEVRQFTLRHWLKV
T10 sequence (P35462 whole entry): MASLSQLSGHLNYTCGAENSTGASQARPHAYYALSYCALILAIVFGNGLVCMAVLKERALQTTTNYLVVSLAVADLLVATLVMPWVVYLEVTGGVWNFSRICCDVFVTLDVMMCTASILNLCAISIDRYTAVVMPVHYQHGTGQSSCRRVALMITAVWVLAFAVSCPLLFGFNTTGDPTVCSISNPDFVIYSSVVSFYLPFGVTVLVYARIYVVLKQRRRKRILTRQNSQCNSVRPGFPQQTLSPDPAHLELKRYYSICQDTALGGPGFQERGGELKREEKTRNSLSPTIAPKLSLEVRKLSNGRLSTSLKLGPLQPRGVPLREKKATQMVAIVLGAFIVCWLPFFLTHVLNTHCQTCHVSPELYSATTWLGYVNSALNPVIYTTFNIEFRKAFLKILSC
T9 sequence (P14416 whole entry): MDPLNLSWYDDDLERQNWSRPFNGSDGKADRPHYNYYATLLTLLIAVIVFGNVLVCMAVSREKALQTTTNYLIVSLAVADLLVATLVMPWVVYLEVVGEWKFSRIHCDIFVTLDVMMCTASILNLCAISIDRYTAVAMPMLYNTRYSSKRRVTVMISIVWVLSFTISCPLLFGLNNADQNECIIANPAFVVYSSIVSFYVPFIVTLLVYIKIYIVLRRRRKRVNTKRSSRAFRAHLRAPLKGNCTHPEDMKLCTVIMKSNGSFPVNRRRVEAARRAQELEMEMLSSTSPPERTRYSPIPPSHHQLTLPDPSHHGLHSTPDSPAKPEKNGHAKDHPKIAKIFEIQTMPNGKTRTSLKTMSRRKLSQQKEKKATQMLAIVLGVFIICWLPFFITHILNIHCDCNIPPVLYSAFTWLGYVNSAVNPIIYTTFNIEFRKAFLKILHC

OCCNCCc1cc2c(cc1Br)OCO2 [A(XXX)]
Ki (5-HT1A receptor [1]): 0.295 µM
EC50 (5-HT1A receptor [2]): 11.7 µM
Ki [3]: 84.3 µM
HT1B, percent of control-specific binding (5-HT1B (h)): 0%
HT1D, percent of control-specific binding (5-HT1D (r)): 39%
HT2B, percent of control-specific binding (5-HT2B (h)): 54%
HT2C, percent of control-specific binding (5-HT2C (h)): 57%
HT7, percent of control-specific binding (5-HT7 (h)): 61%
inhibition at 10 µM (alpha2A (h)): 6%
D2, percent of control-specific binding (D2 (h)): 4%
D3, percent of control-specific binding (D3 (h)): 30%
DAT, percent of control-specific binding (DAT (h)): 0%
MT1, percent of control-specific binding (MT1 (ML1A) (h)): 0%
NET, percent of control-specific binding (NET (h)): 6%
Ki (5-HT2A receptor): 11.7 µM

c1cc(CCN2CCCC2)c2c(c1)OCO2 [A(XXIX)]
Ki (5-HT1A receptor [1]): 0.0132 µM
EC50 (5-HT1A receptor [2]): 0.352 µM
Ki [3]: 10.1 µM
HT1B, percent of control-specific binding (5-HT1B (h)): 3%
HT1D, percent of control-specific binding (5-HT1D (r)): 44%
HT2B, percent of control-specific binding (5-HT2B (h)): 48%
HT2C, percent of control-specific binding (5-HT2C (h)): 87%
HT7, percent of control-specific binding (5-HT7 (h)): 48%
inhibition at 10 µM (alpha2A (h)): 57%
D2, percent of control-specific binding (D2 (h)): 0%
D3, percent of control-specific binding (D3 (h)): 22%
DAT, percent of control-specific binding (DAT (h)): 49%
MT1, percent of control-specific binding (MT1 (ML1A) (h)): 1%
NET, percent of control-specific binding (NET (h)): 2%
Ki (5-HT2A receptor): 8 µM

FC1(F)Oc2ccc(CCN3CCCC3)cc2O1 [A(XXVIII)]
Ki (5-HT1A receptor [1]): 1.98 µM
EC50 (5-HT1A receptor [2]): 374 µM
Ki [3]: 23.7 µM
HT1B, percent of control-specific binding (5-HT1B (h)): 0%
HT1D, percent of control-specific binding (5-HT1D (r)): 1%
HT2B, percent of control-specific binding (5-HT2B (h)): 15%
HT2C, percent of control-specific binding (5-HT2C (h)): 53%
HT7, percent of control-specific binding (5-HT7 (h)): 15%
inhibition at 10 µM (alpha2A (h)): 26%
D2, percent of control-specific binding (D2 (h)): 6%
D3, percent of control-specific binding (D3 (h)): 16%
DAT, percent of control-specific binding (DAT (h)): 0%
MT1, percent of control-specific binding (MT1 (ML1A) (h)): 0%
NET, percent of control-specific binding (NET (h)): 0%
Ki (5-HT2A receptor): 15.6 µM

Brc1cc2c(cc1CCN1CCCC1)OCO2 [A(XXV)]
Ki (5-HT1A receptor [1]): 0.0635 µM
EC50 (5-HT1A receptor [2]): 0.342 µM
Ki [3]: 10.9 µM
HT1B, percent of control-specific binding (5-HT1B (h)): 0%
HT1D, percent of control-specific binding (5-HT1D (r)): 30%
HT2B, percent of control-specific binding (5-HT2B (h)): 76%
HT2C, percent of control-specific binding (5-HT2C (h)): 87%
HT7, percent of control-specific binding (5-HT7 (h)): 71%
inhibition at 10 µM (alpha2A (h)): 61%
D2, percent of control-specific binding (D2 (h)): 21%
D3, percent of control-specific binding (D3 (h)): 70%
DAT, percent of control-specific binding (DAT (h)): 11%
MT1, percent of control-specific binding (MT1 (ML1A) (h)): 1%
NET, percent of control-specific binding (NET (h)): 28%
Ki (5-HT2A receptor): 7.65 µM

COc1cc2c(cc1CCN1CCCC1)OCO2 [A(XIV)]
Ki (5-HT1A receptor [1]): 0.0462 µM
EC50 (5-HT1A receptor [2]): 1.17 µM
5-HT1A receptor engagement (change in cAMP levels), in words (5-HT1A receptor [2]): receptor modulation at evaluated ligand concentrations
Ki [3]: 23.2 µM
HT1B, percent of control-specific binding (5-HT1B (h)): 7%
HT1D, percent of control-specific binding (5-HT1D (r)): 28%
HT2B, percent of control-specific binding (5-HT2B (h)): 63%
HT2C, percent of control-specific binding (5-HT2C (h)): 90%
HT7, percent of control-specific binding (5-HT7 (h)): 75%
inhibition at 10 µM (alpha2A (h)): 54%
D2, percent of control-specific binding (D2 (h)): 12%
D3, percent of control-specific binding (D3 (h)): 46%
DAT, percent of control-specific binding (DAT (h)): 0%
MT1, percent of control-specific binding (MT1 (ML1A) (h)): 7%
NET, percent of control-specific binding (NET (h)): 0%
Ki (5-HT2A receptor): 11 µM

COc1cc2c(cc1CCNCCO)OCO2 [A(XXIV)]
Ki (5-HT1A receptor [1]): 0.993 µM
EC50 (5-HT1A receptor [2]): 32.3 µM
Ki [3]: 52.2 µM
HT1B, percent of control-specific binding (5-HT1B (h)): 0%
HT1D, percent of control-specific binding (5-HT1D (r)): 29%
HT2B, percent of control-specific binding (5-HT2B (h)): 43%
HT2C, percent of control-specific binding (5-HT2C (h)): 76%
HT7, percent of control-specific binding (5-HT7 (h)): 35%
inhibition at 10 µM (alpha2A (h)): 11%
D2, percent of control-specific binding (D2 (h)): 7%
D3, percent of control-specific binding (D3 (h)): 13%
DAT, percent of control-specific binding (DAT (h)): 5%
MT1, percent of control-specific binding (MT1 (ML1A) (h)): 0%
NET, percent of control-specific binding (NET (h)): 0%
Ki (5-HT2A receptor): 26 µM

COc1cc(CCN)c(OC)cc1Br [2C-B, reference compound]
Ki (5-HT1A receptor [1]): 0.2 µM
5-HT1A receptor engagement (change in cAMP levels), in words (5-HT1A receptor [2]): reduction in cAMP levels
EC50 (5-HT1A receptor [2]; reduction of cAMP in +5-HT1A cells stimulated with 4 μM forskolin, 20 min, read-out: 5-HT1A, EC50): 5.95 µM
SERT binding, binding curve in words [3]: bind SERT to varying degrees
Ki ([3]; read-out: SERT, Ki): 11.4 µM
HT1B, percent of control-specific binding (5-HT1B (h)): 77%
HT1D, percent of control-specific binding (5-HT1D (r)): 100%
HT2B, percent of control-specific binding (5-HT2B (h)): 99%
HT7, percent of control-specific binding (5-HT7 (h)): 88%
α-2A, percent of control-specific binding (alpha2A (h)): 88%
D2, percent of control-specific binding (D2 (h)): 42%
D3, percent of control-specific binding (D3 (h)): 43%
DAT, percent of control-specific binding (DAT (h)): 5%
MT1, percent of control-specific binding (MT1 (ML1A) (h)): 86%
NET, percent of control-specific binding (NET (h)): 13%
Ki (5-HT2A receptor; read-out: 5-HT2A, Ki, competition with 1 nM [3H]ketanserin, test compound 3 nM to 1 mM): 0.414 µM
